Measured values reported in patent US20240199578A1, “SOLID STATE FORMS OF ZAVEGEPANT AND PROCESS FOR PREPARATION THEREOF” (TEVA CZECH INDUSTRIES S.R.O, priority 2021, published 2024).

Assay: Stability to polymorphic conversion (heating, grinding, high relative humidity)
Format: physicochemical
Conditions: when heated, during grinding and/or high relative humidity

## Cc1cc(C[C@@H](NC(=O)N2CCC(c3cc4ccccc4[nH]c3=O)CC2)C(=O)N2CCN(C3CCN(C)CC3)CC2)cc2cn[nH]c12 [Form B]
  stability to polymorphic conversion: particularly stable to polymorphic conversion
